This is an account of results in ChEMBL document CHEMBL4052641 (Eur J Med Chem, 2017).

Series [1] addresses T1, Xanthine dehydrogenase/oxidase (Bos taurus, UniProt P80457). In words: Inhibition of bovine milk xanthine oxidase assessed as reduction in uric acid formation using xanthine as substrate preincubated for 5 mins followed by substrate addition by UV-Vis spectrophotometric assay.
Series [2] deals with T1, Xanthine dehydrogenase/oxidase. In words: Potency index, ratio of allopurinol IC50 to compound IC50 for bovine milk xanthine oxidase. Conditions: cattle.
Series [3] can be described thus: Inhibition of butter milk xanthine oxidase (unknown origin) assessed as reduction in uric acid formation using xanthine as substrate by spectrophotometric assay.
Series [4] is described as follows: Inhibition of butter milk xanthine oxidase (unknown origin) assessed as reduction in uric acid formation using xanthine as substrate by double beam spectrophotometric assay.
Series [5] deals with T1, Xanthine dehydrogenase/oxidase. In words: Potency index, ratio of apigenin IC50 to compound IC50 for bovine milk xanthine oxidase. Conditions: cattle.
Series [6] has the same target. In words: Inhibition of bovine milk xanthine oxidase assessed as reduction in uric acid formation using xanthine as substrate preincubated for 3 hrs followed by substrate addition by UV-Vis spectrophotometric assay.
The target in series [7] is T2, Xanthine dehydrogenase/oxidase (Homo sapiens, UniProt P47989). In words: Potency index, ratio of allopurinol IC50 to compound IC50 for xanthine oxidase (unknown origin).
Series [8] addresses T2, Xanthine dehydrogenase/oxidase. In words: Inhibition of xanthine oxidase (unknown origin) assessed as reduction in uric acid formation using xanthine as substrate after 30 mins by UV-Vis spectrophotometric assay.
A short description of series [9]: Potency index, ratio of allopurinol IC50 to compound IC50 for butter milk xanthine oxidase (unknown origin).
Series [10] can be described thus: Inhibition of butter milk xanthine oxidase (unknown origin) assessed as reduction in uric acid formation using xanthine as substrate by UV-Vis spectrophotometric assay.
A short description of series [11]: Potency index, ratio of quercetin IC50 to compound IC50 for butter milk xanthine oxidase (unknown origin).
Series [12] has as its target T2, Xanthine dehydrogenase/oxidase. In words: Inhibition of xanthine oxidase (unknown origin) using xanthine as substrate measured at every 1 mins up to 5 mins.
Series [13] shares this target. Nature of the series: Inhibition of xanthine oxidase (unknown origin) assessed as reduction in uric acid formation using xanthine as substrate after 4 mins by UV-Vis spectrophotometric assay.
The target in series [14] is T1, Xanthine dehydrogenase/oxidase. In words: Inhibition of bovine milk xanthine oxidase assessed as reduction in uric acid formation using xanthine as substrate preincubated for 3 hrs followed by substrate addition measured after 1 min by UV spectrophotometric assay.
For series [15], the target named is T2, Xanthine dehydrogenase/oxidase. Nature of the series: Inhibition of xanthine oxidase (unknown origin) assessed as reduction in uric acid formation using xanthine as substrate after 10 mins.
The target in series [16] is T1, Xanthine dehydrogenase/oxidase. Nature of the series: Inhibition of bovine milk xanthine oxidase assessed using xanthine as substrate after 10 mins by fluorometric assay.
Series [17] has the same target. Nature of the series: Competitive inhibition of bovine milk xanthine oxidoreductase assessed as reduction in uric acid formation by spectrophotometric assay.
The target in series [18] is T2, Xanthine dehydrogenase/oxidase. In words: Non-competitive inhibition of human xanthine oxidase.

T2 sequence (P47989 whole entry): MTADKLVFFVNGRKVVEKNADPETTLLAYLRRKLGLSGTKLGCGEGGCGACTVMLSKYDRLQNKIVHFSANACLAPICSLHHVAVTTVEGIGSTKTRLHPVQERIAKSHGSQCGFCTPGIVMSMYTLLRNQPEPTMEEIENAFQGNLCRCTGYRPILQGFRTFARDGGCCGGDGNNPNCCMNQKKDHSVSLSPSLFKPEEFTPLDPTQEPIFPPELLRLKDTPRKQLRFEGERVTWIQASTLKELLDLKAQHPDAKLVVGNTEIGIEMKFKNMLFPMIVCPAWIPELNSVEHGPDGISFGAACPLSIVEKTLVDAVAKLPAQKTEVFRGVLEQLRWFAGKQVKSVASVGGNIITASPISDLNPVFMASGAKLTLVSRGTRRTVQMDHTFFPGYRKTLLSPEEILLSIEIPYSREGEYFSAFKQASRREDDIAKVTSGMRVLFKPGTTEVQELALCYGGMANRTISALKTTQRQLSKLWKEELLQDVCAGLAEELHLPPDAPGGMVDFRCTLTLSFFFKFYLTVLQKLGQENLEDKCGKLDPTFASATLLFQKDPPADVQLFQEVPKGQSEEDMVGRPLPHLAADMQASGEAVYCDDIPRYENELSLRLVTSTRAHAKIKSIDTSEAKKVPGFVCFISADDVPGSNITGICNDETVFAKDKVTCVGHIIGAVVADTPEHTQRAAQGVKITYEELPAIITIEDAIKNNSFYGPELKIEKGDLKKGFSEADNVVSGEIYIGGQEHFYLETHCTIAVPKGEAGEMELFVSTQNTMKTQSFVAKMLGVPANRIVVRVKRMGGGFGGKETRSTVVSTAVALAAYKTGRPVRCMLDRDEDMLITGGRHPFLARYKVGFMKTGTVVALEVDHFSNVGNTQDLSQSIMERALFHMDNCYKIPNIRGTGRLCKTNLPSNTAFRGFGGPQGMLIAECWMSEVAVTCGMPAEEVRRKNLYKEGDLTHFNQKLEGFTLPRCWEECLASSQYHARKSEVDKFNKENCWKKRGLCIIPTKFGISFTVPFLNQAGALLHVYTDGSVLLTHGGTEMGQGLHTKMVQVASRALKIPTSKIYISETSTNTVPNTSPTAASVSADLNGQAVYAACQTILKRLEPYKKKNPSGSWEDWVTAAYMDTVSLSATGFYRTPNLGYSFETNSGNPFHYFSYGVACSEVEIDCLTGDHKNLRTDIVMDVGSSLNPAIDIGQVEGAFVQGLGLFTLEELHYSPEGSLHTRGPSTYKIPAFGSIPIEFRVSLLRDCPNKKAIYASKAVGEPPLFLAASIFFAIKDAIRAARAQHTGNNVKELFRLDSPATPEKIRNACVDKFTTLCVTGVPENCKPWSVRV
T1 sequence (P80457 whole entry): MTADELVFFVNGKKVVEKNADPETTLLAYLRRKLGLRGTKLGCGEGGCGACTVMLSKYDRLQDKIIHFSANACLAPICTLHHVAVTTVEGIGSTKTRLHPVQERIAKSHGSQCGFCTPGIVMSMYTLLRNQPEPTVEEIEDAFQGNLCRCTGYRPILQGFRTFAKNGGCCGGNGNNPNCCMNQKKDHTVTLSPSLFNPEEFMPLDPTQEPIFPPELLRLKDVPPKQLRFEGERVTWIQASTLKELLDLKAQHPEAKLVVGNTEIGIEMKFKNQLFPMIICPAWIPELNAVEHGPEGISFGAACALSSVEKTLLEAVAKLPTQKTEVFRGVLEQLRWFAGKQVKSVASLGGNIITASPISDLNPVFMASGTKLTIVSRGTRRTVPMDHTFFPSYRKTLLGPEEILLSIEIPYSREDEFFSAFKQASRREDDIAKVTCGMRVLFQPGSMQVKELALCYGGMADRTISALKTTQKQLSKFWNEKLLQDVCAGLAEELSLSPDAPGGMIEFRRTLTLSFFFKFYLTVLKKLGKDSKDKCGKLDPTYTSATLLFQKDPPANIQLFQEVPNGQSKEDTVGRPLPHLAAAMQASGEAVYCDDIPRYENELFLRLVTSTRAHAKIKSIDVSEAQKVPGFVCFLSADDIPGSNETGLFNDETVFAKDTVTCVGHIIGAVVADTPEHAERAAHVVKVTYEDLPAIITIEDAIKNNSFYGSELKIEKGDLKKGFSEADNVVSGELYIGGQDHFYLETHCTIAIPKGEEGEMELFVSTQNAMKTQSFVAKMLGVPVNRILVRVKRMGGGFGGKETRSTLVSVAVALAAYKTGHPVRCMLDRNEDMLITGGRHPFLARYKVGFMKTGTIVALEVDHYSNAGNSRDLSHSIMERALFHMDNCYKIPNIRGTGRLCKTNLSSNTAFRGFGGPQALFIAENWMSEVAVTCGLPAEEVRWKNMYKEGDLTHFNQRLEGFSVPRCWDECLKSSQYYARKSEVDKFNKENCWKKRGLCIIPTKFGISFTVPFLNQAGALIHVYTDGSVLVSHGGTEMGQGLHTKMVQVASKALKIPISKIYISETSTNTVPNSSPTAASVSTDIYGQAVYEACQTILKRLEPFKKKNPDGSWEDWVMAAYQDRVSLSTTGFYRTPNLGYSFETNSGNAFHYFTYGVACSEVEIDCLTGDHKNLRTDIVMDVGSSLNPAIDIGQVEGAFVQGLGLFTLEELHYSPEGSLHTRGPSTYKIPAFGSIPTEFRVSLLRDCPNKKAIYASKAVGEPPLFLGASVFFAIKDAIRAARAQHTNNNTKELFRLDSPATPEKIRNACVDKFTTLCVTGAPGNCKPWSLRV

For `Oc1nc(-c2ccccc2)cc(-c2ccccc2)n1`, the IC50 in [1] is 10.2 µM. Also, the “Ratio IC50” value in series [2] is given as 1.2. Take `O=c1c(O)c(-c2ccc(O)c(O)c2)oc2cc(O)cc(O)c12` [QUERCETIN]: the IC50 in [3] was determined as 0.383 µM; in series [4] it was 0.4 µM. Turning to `O=c1cc(-c2ccccc2)oc2cc(O)cc(O)c12` [CHRYSIN], the “Ratio IC50” value in series [5] is 2.83; in series [2] it was 2.33. In addition, the half-inhibitory concentration (IC50) in [6] came to 1.26 µM. `O=[N+]([O-])c1cccc(C2Nc3ccccc3-c3cc(-c4ccccc4)nn32)c1` (stereo not drawn): the “Ratio IC50” value in series [7] turned out to be 1.51. Besides, the half-maximal inhibitory concentration (IC50) in [8] was determined as 20.9 µM. As for `Oc1ncnc2[nH]ncc12` [ALLOPURINOL], in [3], the IC50 was 5.3 µM. In the case of `COCCCCSc1nc2[nH]cnc2c(=O)[nH]1`, the Ratio IC50 in series [9] was determined as 150. Also, the IC50 in series [10] was 0.028 µM. Turning to `CCCCCCSc1nc2c(=O)[nH]cnc2[nH]1`, the Ratio IC50 in [9] was 7.5. Besides, the IC50 in series [10] came to 0.56 µM. For `COc1ccc(-c2cc(=O)c3c(O)cc(O)cc3o2)cc1` [ACACETIN], in series [3], the half-inhibitory concentration (IC50) is 0.22 µM. In [11], the Ratio IC50 came out at 1.74. For `CC(C)=CCc1cc(C(=O)/C=C/c2ccc(O)c(O)c2)c(O)cc1O` [BROUSSOCHALCONE A], the “Ratio IC50” value in series [7] amounted to 3.33. Also, it took 0.6 µM to reach half-maximal inhibition in [12] (IC50).

For `C=CCc1ccc(O)c(O)c1` [HYDROXYCHAVICOL], the “Ratio IC50” value in series [7] is reported as 1.84. Moreover, the IC50 in series [13] is 16.7 µM. As to `CCCCSc1nc(O)c2[nH]cnc2n1`, the Ratio IC50 in series [9] was 1.08. The IC50 in series [10] turned out to be 3.88 µM. Take `O=C(/C=C/c1ccc2c(c1)O[C@H](c1ccc(O)c(O)c1)[C@@H](C(=O)O)O2)O/C=C\c1ccc(O)c(O)c1`: the IC50 in series [3] was 2 to 4.22 µM. In addition, the Ratio IC50 in series [11] stood at 2.65. For the molecule `CC1(C)C=Cc2cc(C(=O)/C=C/c3ccc(O)c(O)c3)c(O)cc2O1`, the “Ratio IC50” value in series [7] amounted to 1.11. In addition, the midpoint of inhibition in series [12], the IC50, lay at 1.8 µM. On to `O=c1c(-c2ccc(O)cc2)coc2cc(O)cc(O)c12` [GENISTEIN], for which the half-inhibitory concentration (IC50) in series [14] worked out at 1.73 µM. Moreover, in series [2], the “Ratio IC50” value is reported as 2.04.

On to `O=C1CC(c2ccc(O)c(-c3c(O)cc(O)c4c3OC(c3ccc(O)cc3)CC4=O)c2)Oc2cc(O)cc(O)c21` (stereo not drawn), for which the IC50 in [15] worked out at 0.092 µM. For the same molecule, the “Ratio IC50” value in series [7] was found to be 1.09. Turning to `O=c1nc(-c2ccncc2)cc(-c2cccs2)[nH]1`, the IC50 in series [1] is 6.45 µM. For the same molecule, the “Ratio IC50” value in [2] is given as 1.9.

In the case of `O=c1cc(-c2cccnc2)[nH]c2ccccc12`, the concentration for half-maximal inhibition (IC50) in series [1] is 6.24 µM. Further, in series [2], the “Ratio IC50” value is 1.33.

For `O=c1cc(-c2ccc(O)c(O)c2)oc2cc(O)cc(O)c12` [LUTEOLIN], the IC50 in series [16] was determined as 10.2 µM. Also, the “Ratio IC50” value in [2] was 25.32. Consider `O=c1cc(-c2ccc(O)cc2)oc2cc(O)cc(O)c12` [APIGENIN], for which the IC50 in series [6] was 3.57 µM. Regarding `CCCCCCSc1nc2c(=O)[nH]c(O)nc2[nH]1`, the Ratio IC50 in [9] amounted to 6.36. Further, the half-inhibitory concentration (IC50) in series [10] amounted to 0.66 µM. In the case of `CCOCCCSc1nc2[nH]cnc2c(=O)[nH]1`, in series [9], the Ratio IC50 stood at 72.4. Also, the IC50 in series [10] worked out at 0.058 µM. For the molecule `O=c1cc(-c2ccc(-c3ccccc3)cc2)oc2cc(O)ccc12`, the IC50 in series [3] is 0.347 µM. For the same molecule, the Ratio IC50 in series [11] lay within 1.1 to 1.74. On to `O=c1nc(-c2ccncc2)cc(-c2ccco2)[nH]1`, for which the IC50 in [1] is 7.23 µM. Further, the “Ratio IC50” value in series [2] was found to be 1.69. In the case of `O=c1nc(-c2ccc(Cl)cc2)cc(-c2ccc(Cl)cc2)[nH]1`, the IC50 in [1] came out at 12 µM. Also, the “Ratio IC50” value in series [2] is listed as 1.02. In the case of `O=c1oc2c(O)ccc(-c3oc4cc(O)cc(O)c4c(=O)c3O)c2s1`, the concentration for half-maximal inhibition (IC50) in series [4] was 0.05 µM. In addition, the Ratio IC50 in series [11] is 8.

Take `C=CCc1cc(O)c(O)cc1C(C=C)c1ccc(O)c(O)c1` (stereo not drawn): in series [7], the “Ratio IC50” value stood at 25.21. In addition, the IC50 in series [12] was found to be 0.28 µM. `O=c1nc(-c2ccncc2)cc(-c2cccc3ccccc23)[nH]1`: in [1], the IC50 turned out to be 11.2 µM. Moreover, the “Ratio IC50” value in [2] stood at 1.09. On to `O=C(/C=C/c1ccc2c(c1)O[C@H](C(=O)O)[C@H](c1ccc(O)c(O)c1)O2)O/C=C\c1ccc(O)c(O)c1`, for which the IC50 in series [3] was 0.6 to 1.1 µM. In addition, in series [11], the Ratio IC50 is 8.83. Consider `CCCCCOC(=O)C(=O)Nc1[nH]cnc1C(N)=O`, for which the Ratio IC50 in series [9] is 2.19. Also, the half-maximal inhibitory concentration (IC50) in [10] was 1.92 µM. For the molecule `Oc1c(Cl)cc(Cl)cc1C1Nc2ccccc2-c2cc(-c3ccccc3)nn21` (stereo not drawn), in series [7], the “Ratio IC50” value was 2.89. Further, in series [8], the IC50 is 11 µM. On to `CCCOCCSc1nc2[nH]cnc2c(=O)[nH]1`, for which, in series [9], the Ratio IC50 came out at 6.27. In addition, the half-inhibitory concentration (IC50) in series [10] is 0.67 µM.

With `O=c1cc(-c2ccccc2)oc2cc(O)c(O)c(O)c12` [BAICALEIN], the IC50 in series [16] was 71.5 µM. In addition, the “Ratio IC50” value in series [2] is reported as 3.61. Regarding `O=c1cc(-c2ccc(-c3ccccc3)cc2)oc2cc(O)cc(O)c12`, in series [3], the IC50 is 0.0136 µM. The Ratio IC50 in series [11] was determined as 28.2. Taken in the same sequence, the figures for `O=C(/C=C/c1ccc2c(c1)O[C@@H](c1ccc(O)c(O)c1)[C@@H](C(=O)O)O2)O/C=C\c1ccc(O)c(O)c1` were 5.2 to 28.2 µM and 1.02. Take `N#Cc1cc(-c2n[nH]c(-c3ccncc3)n2)ccn1` [TOPIROXOSTAT]: the Ki in series [17] came out at 0.0057 µM. As to `CCCCCCOC(=O)C(=O)Nc1[nH]cnc1C(N)=O`, the Ratio IC50 in series [9] was 3.78. For the same molecule, the half-maximal inhibitory concentration (IC50) in [10] was 1.11 µM. In series [18], `Cc1nc(-c2ccc(OCC(C)C)c(C#N)c2)sc1C(=O)O` [FEBUXOSTAT] registered an inhibition constant Ki of 0.0001 µM. On to `CC(C)(C)c1ccc(-c2cc(=O)c3c(O)cc(O)cc3o2)cc1`, for which the half-inhibitory concentration (IC50) in [3] came out at 0.0908 µM. Further, in series [11], the Ratio IC50 amounted to 4.22.
